In assay [1] the target is T1, Recombinant human His6-USP1/His6-UAF1 complex protein (Homo sapiens, UniProt O94782).
T1 construct: His6; purchased R&D E-568-050
As to the kind of experiment: In vitro inhibitory activity against USP1 (Ubiquitin Rhodamine 110 fluorescence detection, 384-well plate). The note with it: Ub-Rho substrate, 1 hour pre-incubation, read after 30 minutes. The assay is classed as biochemical. Summed up:
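Fluorescence assay measuring inhibition of recombinant human His6-USP1/His6-UAF1 complex with Ubiquitin-Rhodamine 110 substrate. Compounds held as 50 mM stocks in 100% DMSO and dispensed by acoustic transfer into modified Tris assay buffer.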

The next assay deals with MDA-MB-436. As to the kind of experiment: CTG experiment for cell viability (CellTiter-Glo, 96-well plate, 7 days). The assay is classed as cell-based. The note with it: Homo sapiens, MDA-MB-436, 168 h, MDA-MB-436 cells, 7 days culture with compound. The essentials: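 MDA-MB-436 cells in DMEM were plated in 96-well format, treated with compounds, and cultured 7 days at 37°C. After removing the medium, cells were given PBS plus CellTiter-Glo reagent, incubated 10 min at room temperature, and luminescence was read. Curves were fitted as for the enzyme assay.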

T1 sequence (O94782 whole entry): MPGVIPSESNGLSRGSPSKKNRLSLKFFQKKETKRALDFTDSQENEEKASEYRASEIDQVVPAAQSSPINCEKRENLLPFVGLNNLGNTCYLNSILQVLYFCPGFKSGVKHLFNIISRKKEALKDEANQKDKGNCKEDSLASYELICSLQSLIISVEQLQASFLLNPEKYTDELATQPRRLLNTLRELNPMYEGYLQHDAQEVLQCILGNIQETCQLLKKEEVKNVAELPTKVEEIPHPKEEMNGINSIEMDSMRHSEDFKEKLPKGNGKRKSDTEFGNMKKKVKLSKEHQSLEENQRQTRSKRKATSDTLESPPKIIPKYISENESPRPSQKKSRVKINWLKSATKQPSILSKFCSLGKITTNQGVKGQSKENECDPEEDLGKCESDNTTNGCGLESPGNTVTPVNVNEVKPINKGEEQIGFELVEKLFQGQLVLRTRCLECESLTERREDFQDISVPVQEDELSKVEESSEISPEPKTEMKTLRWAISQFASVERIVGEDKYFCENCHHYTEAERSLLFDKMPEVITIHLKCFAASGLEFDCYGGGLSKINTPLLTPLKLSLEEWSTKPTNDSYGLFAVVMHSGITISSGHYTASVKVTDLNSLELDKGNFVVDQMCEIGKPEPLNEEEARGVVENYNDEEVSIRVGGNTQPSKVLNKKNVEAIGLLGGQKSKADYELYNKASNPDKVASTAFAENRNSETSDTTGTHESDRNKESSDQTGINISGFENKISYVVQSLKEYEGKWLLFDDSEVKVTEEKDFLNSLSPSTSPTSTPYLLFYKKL
T1 sequence (Q8TAF3 whole entry partner): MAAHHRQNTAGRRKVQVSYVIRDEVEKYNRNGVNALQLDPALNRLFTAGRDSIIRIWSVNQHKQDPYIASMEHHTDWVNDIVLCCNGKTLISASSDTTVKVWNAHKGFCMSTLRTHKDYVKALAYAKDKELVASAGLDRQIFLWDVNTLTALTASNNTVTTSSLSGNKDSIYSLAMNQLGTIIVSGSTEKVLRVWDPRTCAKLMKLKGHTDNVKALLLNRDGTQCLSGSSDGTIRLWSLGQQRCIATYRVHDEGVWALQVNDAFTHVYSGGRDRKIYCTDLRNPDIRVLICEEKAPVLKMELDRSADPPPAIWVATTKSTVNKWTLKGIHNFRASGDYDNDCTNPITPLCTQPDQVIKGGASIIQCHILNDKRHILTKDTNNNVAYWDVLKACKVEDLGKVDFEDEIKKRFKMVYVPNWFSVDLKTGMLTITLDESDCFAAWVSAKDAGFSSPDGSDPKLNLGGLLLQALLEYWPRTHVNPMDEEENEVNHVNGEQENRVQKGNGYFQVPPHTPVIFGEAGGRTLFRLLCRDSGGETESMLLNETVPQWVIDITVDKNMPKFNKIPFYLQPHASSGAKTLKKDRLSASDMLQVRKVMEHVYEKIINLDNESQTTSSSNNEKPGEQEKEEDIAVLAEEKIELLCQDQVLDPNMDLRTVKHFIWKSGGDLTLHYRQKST

What is called IC50 is the point on the concentration scale where inhibition reaches its midpoint. Consider `COc1cnc(-c2c(OC)ncnc2C2CC2)nc1NCc1ccc(-c2nc(C(F)(F)F)cn2CF)cc1` [Example 107, 4'-Cyclopropyl-N-(4-(1-(fluoromethyl)-4-(trifluoromethyl)-1H-imidazol-2-yl)benzyl)-5,6'-dimethoxy-[2,5'-bipyrimidin]-4-amine], for which the IC50 in assay [1] was 16 nM; with MDA-MB-436 it was 17.5 nM.

On to `COc1ncnc(C2CC2)c1-c1ncc(OC(C)C)c(N(C)CC2CCN(c3nc(C(F)(F)F)cn3C)CC2)n1` [Example 108, 4'-Cyclopropyl-5-isopropoxy-6'-methoxy-N-methyl-N-((1-(1-methyl-4-(trifluoromethyl)-1H-imidazol-2-yl)piperidin-4-yl)methyl)-[2,5'-bipyrimidin]-4-amine], for which the IC50 in assay [1] stood at 19.7 nM; in the assay on MDA-MB-436 it was 353 nM.

Consider `COc1ncnc(C2CC2)c1-c1ncc(OC(C)C)c(N(C)Cc2ccc(-c3nc(C(F)(F)F)cn3C)cc2)n1` [Example 109, 4'-Cyclopropyl-5-isopropoxy-6'-methoxy-N-methyl-N-(4-(1-methyl-4-(trifluoromethyl)-1H-imidazol-2-yl)benzyl)-[2,5'-bipyrimidin]-4-amine], for which the values for the IC50 (in assay [1]; in the assay with MDA-MB-436) were 5.3 nM and 48.3 nM, respectively.

For `COc1ncnc(C2CC2)c1-c1ncc(OC(C)C)c(NCC2CCN(c3nc(C(F)(F)F)cn3C)CC2)n1` [Example 110, 4'-Cyclopropyl-5-isopropoxy-6'-methoxy-N-((1-(1-methyl-4-(trifluoromethyl)-1H-imidazol-2-yl)piperidin-4-yl)methyl)-[2,5'-bipyrimidin]-4-amine], the IC50 in assay [1] turned out to be 28.6 nM; in the assay on MDA-MB-436, 354 nM.

On to `COc1ncnc(C2CC2)c1-c1ncc(OC(C)C)c(NCc2ccc(-c3nc(C(F)(F)F)cn3C)cc2)n1` [Example 111, 4'-Cyclopropyl-5-isopropoxy-6'-methoxy-N-(4-(1-methyl-4-(trifluoromethyl)-1H-imidazol-2-yl)benzyl)-[2,5'-bipyrimidin]-4-amine], for which the figures for the IC50 (in assay [1]; with MDA-MB-436) were 10.4 nM and 88.1 nM, respectively.

Turning to `COc1ncnc(C2CC2)c1-c1nc(NCc2ccc(-c3nc(C(F)(F)F)cn3C)s2)c2occc2n1` [Example 113, 2-(4-Cyclopropyl-6-methoxypyrimidin-5-yl)-N-((5-(1-methyl-4-(trifluoromethyl)-1H-imidazol-2-yl)thiophen-2-yl)methyl)furo[3,2-d]pyrimidin-4-amine], the IC50 was determined as 23 nM in assay [1] and 87.2 nM in the assay with MDA-MB-436.

In the case of `COc1ncnc(C2CC2)c1-c1nc(NCc2ccc(OCc3ccccn3)cc2)c2occc2n1` [Example 116, 2-(4-Cyclopropyl-6-methoxypyrimidin-5-yl)-N-(4-(pyridin-2-ylmethoxy)benzyl)furo[3,2-d]pyrimidin-4-amine], the IC50 in assay [1] was 19.4 nM; in the assay with MDA-MB-436, 536 nM.

In the case of `CCOCCOc1ccc(CNc2nc(-c3c(OC)ncnc3C3CC3)nc3ccoc23)cc1` [Example 117, 2-(4-Cyclopropyl-6-methoxypyrimidin-5-yl)-N-(4-(2-ethoxyethoxy)benzyl)furo[3,2-d]pyrimidin-4-amine], the IC50 worked out at 13.8 nM in assay [1] and 278 nM in the assay with MDA-MB-436.

Take `COc1cc(-c2nc(C(F)(F)F)cn2C)ccc1CNc1nc(-c2c(OC)ncnc2C2CC2)nc2ccoc12` [Example 119, 2-(4-Cyclopropyl-6-methoxypyrimidin-5-yl)-N-(2-methoxy-4-(1-methyl-4-(trifluoromethyl)-1H-imidazol-2-yl)benzyl)furo[3,2-d]pyrimidin-4-amine]: the IC50 in assay [1] turned out to be 7.6 nM; in the assay with MDA-MB-436, 16.9 nM.

As to `COc1cc(CNc2nc(-c3c(OC)ncnc3C3CC3)nc3ccoc23)ccc1-c1nc(C(F)(F)F)cn1C` [Example 120, 2-(4-Cyclopropyl-6-methoxypyrimidin-5-yl)-N-(3-methoxy-4-(1-methyl-4-(trifluoromethyl)-1H-imidazol-2-yl)benzyl)furo[3,2-d]pyrimidin-4-amine], the half-maximal inhibitory concentration (IC50) in assay [1] was 8.9 nM; in the assay on MDA-MB-436 it was 50.5 nM.

With `COc1cc(-n2nc(C(F)(F)F)cc2C)ccc1CNc1nc(-c2c(OC)ncnc2C2CC2)nc2ccoc12` [Example 121, 2-(4-Cyclopropyl-6-methoxypyrimidin-5-yl)-N-(2-methoxy-4-(5-methyl-3-(trifluoromethyl)-1H-pyrazol-1-yl)benzyl)furo[3,2-d]pyrimidin-4-amine], the values for the IC50 (in assay [1]; in the assay with MDA-MB-436) were 8.3 nM and 23.9 nM, respectively.

With `COc1cc(CNc2nc(-c3c(OC)ncnc3C3CC3)nc3ccoc23)ccc1-n1nc(C(F)(F)F)cc1C` [Example 122, 2-(4-Cyclopropyl-6-methoxypyrimidin-5-yl)-N-(3-methoxy-4-(5-methyl-3-(trifluoromethyl)-1H-pyrazol-1-yl)benzyl)furo[3,2-d]pyrimidin-4-amine], the IC50 came to 13 nM in assay [1] and 82.8 nM in the assay on MDA-MB-436.

Turning to `COc1ncnc(C2CC2)c1-c1nc(NCc2ccc(-c3nc(C(F)F)cn3C)cc2)c2occc2n1` [Example 123, 2-(4-Cyclopropyl-6-methoxypyrimidin-5-yl)-N-(4-(4-(difluoromethyl)-1-methyl-1H-imidazol-2-yl)benzyl)furo[3,2-d]pyrimidin-4-amine], the IC50 stood at 20 nM in assay [1] and 169 nM with MDA-MB-436.

As for `COc1ncnc(C2CC2)c1-c1ncc(Cl)c(NCc2ccc(-c3nc(C(F)(F)F)cn3C)cc2)n1` [Example 124, 5-Chloro-4'-cyclopropyl-6'-methoxy-N-(4-(1-methyl-4-(trifluoromethyl)-1H-imidazol-2-yl)benzyl)-[2,5'-bipyrimidin]-4-amine], the IC50 in assay [1] was 6.1 nM; in the assay with MDA-MB-436 it was 13.2 nM.

`COc1ncnc(C2CC2)c1-c1ncc(Cl)c(NCc2ccc(-c3nc(C(F)(F)F)cn3C3CC3)cc2)n1` [Example 125, 5-Chloro-4'-cyclopropyl-N-(4-(1-cyclopropyl-4-(trifluoromethyl)-1H-imidazol-2-yl)benzyl)-6'-methoxy-[2,5'-bipyrimidin]-4-amine]: the values for the IC50 (in assay [1]; in the assay with MDA-MB-436) were 3.1 nM and 0.5 nM, respectively.

With `COc1ncnc(C2CC2)c1-c1ncc(Cl)c(NCc2ccc(-c3nc(C(F)(F)F)cn3CF)cc2)n1` [Example 126, 5-Chloro-4'-cyclopropyl-N-(4-(1-(fluoromethyl)-4-(trifluoromethyl)-1H-imidazol-2-yl)benzyl)-6'-methoxy-[2,5'-bipyrimidin]-4-amine], the IC50 in assay [1] stood at 13 nM; in the assay with MDA-MB-436 it was 22.7 nM.

`COc1ncnc(C2CC2)c1-c1ncc(F)c(N(C)Cc2ccc(-c3nc(C(F)(F)F)cn3C(C)C)cc2)n1` [Example 127, 4'-Cyclopropyl-5-fluoro-N-(4-(1-isopropyl-4-(trifluoromethyl)-1H-imidazol-2-yl)benzyl)-6'-methoxy-N-methyl-[2,5'-bipyrimidin]-4-amine]: the IC50 in assay [1] is 4.2 nM; in the assay with MDA-MB-436, 12.2 nM.

`[2H]C([2H])([2H])N(Cc1ccc(-c2nc(C(F)(F)F)cn2C2CC2)cc1)c1nc(-c2c(OC)ncnc2C2CC2)ncc1F` [Example 128, 4'-Cyclopropyl-N-(4-(1-cyclopropyl-4-(trifluoromethyl)-1H-imidazol-2-yl)benzyl)-5-fluoro-6'-methoxy-N-(methyl-d3)-[2,5'-bipyrimidin]-4-amine]: the IC50 in assay [1] stood at 2.6 nM; in the assay with MDA-MB-436 it was 5.7 nM.

On to `[2H]C([2H])([2H])N(Cc1ccc(-c2nc(C(F)(F)F)cn2C(C)C)cc1)c1nc(-c2c(OC)ncnc2C2CC2)ncc1F` [Example 129, 4'-Cyclopropyl-5-fluoro-N-(4-(1-isopropyl-4-(trifluoromethyl)-1H-imidazol-2-yl)benzyl)-6'-methoxy-N-(methyl-d3)-[2,5'-bipyrimidin]-4-amine], for which the half-inhibitory concentration (IC50) in assay [1] was 9 nM; with MDA-MB-436, 12.6 nM.

In the case of `[2H]C([2H])([2H])N(Cc1ccc(-c2nc(C(F)(F)F)cn2CF)cc1)c1nc(-c2c(OC)ncnc2C2CC2)ncc1F` [Example 130, 4'-Cyclopropyl-5-fluoro-N-(4-(1-(fluoromethyl)-4-(trifluoromethyl)-1H-imidazol-2-yl)benzyl)-6'-methoxy-N-(methyl-d3)-[2,5'-bipyrimidin]-4-amine], the IC50 in assay [1] came to 19 nM; in the assay on MDA-MB-436, 45.6 nM.

As for `COc1ncnc(C2CC2)c1-c1ncc(C#N)c(NCc2ccc(-c3nc(C(F)(F)F)cn3C)cc2)n1` [Example 131, 4'-Cyclopropyl-6'-methoxy-4-((4-(1-methyl-4-(trifluoromethyl)-1H-imidazol-2-yl)benzyl)amino)-[2,5'-bipyrimidine]-5-carbonitrile], the half-inhibitory concentration (IC50) in assay [1] came out at 7.4 nM; in the assay with MDA-MB-436 it was 45.5 nM.

With `C#Cc1cnc(-c2c(OC)ncnc2C2CC2)nc1NCc1ccc(-c2nc(C(F)(F)F)cn2C)cc1` [Example 132, 4'-Cyclopropyl-5-ethynyl-6'-methoxy-N-(4-(1-methyl-4-(trifluoromethyl)-1H-imidazol-2-yl)benzyl)-[2,5'-bipyrimidin]-4-amine], the IC50 in assay [1] is 6 nM; in the assay on MDA-MB-436, 8.8 nM.

For `COc1ncnc(C2CC2)c1-c1ncc(OC(F)F)c(NCC2CCN(c3nc(C(F)(F)F)cn3C)CC2)n1` [Example 133, 4'-Cyclopropyl-5-(difluoromethoxy)-6'-methoxy-N-((1-(1-methyl-4-(trifluoromethyl)-1H-imidazol-2-yl)piperidin-4-yl)methyl)-[2,5'-bipyrimidin]-4-amine], the 50% inhibitory concentration (IC50) in assay [1] was 15 nM; in the assay on MDA-MB-436 it was 135 nM.

For `COc1ncnc(C2CC2)c1-c1ncc(OC(F)F)c(NCc2ccc(-c3nc(C(F)(F)F)cn3C)cc2)n1` [Example 134, 4'-Cyclopropyl-5-(difluoromethoxy)-6'-methoxy-N-(4-(1-methyl-4-(trifluoromethyl)-1H-imidazol-2-yl)benzyl)-[2,5'-bipyrimidin]-4-amine], the IC50 was found to be 3.2 nM in assay [1] and 34.1 nM with MDA-MB-436.

These data come from patent EP4741386A1 (Jiangsu Yahong Meditech Co., Ltd., priority 2023, dated 2025).
